Where two headings read alike, the source gives them in different places.
Tests used:
[1] = test system: primary human T-cells; test: Proliferation assay after 5 days (CellTiter-Glo, CD3 stimulation; PBS counter screen); format: cell-based; settings: CD3 stimulation; for Emax: read-out: Emax proliferation (% activation); for EC50: primary human T-cells, CellTiter-Glo after 5 days, EC50 of fitted sigmoidal curve, read-out: Tcell Proliferation CD3 EC50
Method in brief: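 Luminescent ATP detection (CellTiter-Glo 2.0) quantified cell number 5 days after compounds went onto medium-only plates. Wells showing visible toxicity or precipitate were noted beforehand, and compounds that stimulated unstimulated cells or lowered viability were flagged.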

[2] = test system: primary human T-cells
[3] = Homo sapiens, T-cell, 120 h, 5 days, normalized to reference compound A1 as stimulator control = 100%, DMSO neutral control

Row | SMILES | Emax [1, 3] [%] | EC50 ([1]; Homo sapiens, T-cell, 120 h) [nM] | EC50 [2] [nM] | Emax proliferation (% activation) ([1]; 5 days, normalized to reference compound A1 as stimulator control = 100%, DMSO neutral control) | EC50 [1] [nM]
1 | N[C@H]1CS(=O)(=O)c2cc(F)c(-c3nnc(NC4CC4)o3)cc2N(Cc2ccc(Cl)cc2)C1=O [Example 481, (3R)-3-amino-5-[(4-chlorophenyl)methyl]-7-[5-(cyclopropylamino)-1,3,4-oxadiazol-2-yl]-8-fluoro-1,1-dioxo-2,3-dihydro-1λ^6,5-benzothiazepin-4-one] | 89 | 3050 | 1880 | – | –
2 | COC(=O)N1CC(n2nnc(-c3cc4c(cc3F)S(=O)(=O)C[C@H](N)C(=O)N4Cc3ccc(Cl)cc3)n2)CC(F)(F)C1 (stereo partly drawn) [Example 25, methyl 3,3-difluoro-5-[5-[(3R)-3-amino-5-[(4-chlorophenyl)methyl]-8-fluoro-1,1,4-trioxo-2,3-dihydro-1λ^6,5-benzothiazepin-7-yl]tetrazol-2-yl]piperidine-1-carboxylate] | 132 | 249 | 1320 | – | –
3 | COC(F)(c1nc(-c2cc3c(cc2F)[S+]([O-])C[C@H](N)C(=O)N3Cc2ccc(F)cc2)no1)C(F)(F)F (stereo partly drawn) [Example 514, (3R)-3-amino-8-fluoro-5-[(4-fluorophenyl)methyl]-1-oxo-7-[5-(1,2,2,2-tetrafluoro-1-methoxy-ethyl)-1,2,4-oxadiazol-3-yl]-2,3-dihydro-1λ^4,5-benzothiazepin-4-one] | 105 | 1950 | 1920 | – | –
4 | CC(C)(C)c1nnc(-c2cc3c(cc2N)S(=O)(=O)C[C@H](N)C(=O)N3Cc2ccc(Cl)cc2)o1 [Example 275, (3R)-3,8-diamino-7-(5-tert-butyl-1,3,4-oxadiazol-2-yl)-5-[(4-chlorophenyl)methyl]-1,1-dioxo-2,3-dihydro-1λ^6,5-benzothiazepin-4-one] | 108 | 5490 | 9150 | – | –
5 | CC1(c2nc(-c3cc4c(cc3F)S(=O)(=O)C[C@H](N)C(=O)N4Cc3ccc(Cl)cc3)no2)CCN(CC(F)(F)F)CC1 [Example 309, (3R)-3-amino-5-[(4-chlorophenyl)methyl]-8-fluoro-7-[5-[4-methyl-1-(2,2,2-trifluoroethyl)-4-piperidyl]-1,2,4-oxadiazol-3-yl]-1,1-dioxo-2,3-dihydro-1λ^6,5-benzothiazepin-4-one] | 202 | – | 443 | – | –
6 | CCc1coc(-c2cc3c(cc2F)S(=O)(=O)C[C@H](N)C(=O)N3Cc2ccc(Cl)cc2)n1 [Example 216, (3R)-3-amino-5-[(4-chlorophenyl)methyl]-7-(4-ethyloxazol-2-yl)-8-fluoro-1,1-dioxo-2,3-dihydro-1λ^6,5-benzothiazepin-4-one] | 41 | > 20000 | 16400 | – | –
7 | CC(C)(CCCN)c1nnc(-c2cc3c(cc2F)S(=O)(=O)C[C@H](N)C(=O)N3Cc2ccc(Cl)cc2)o1 [Example 149, (3R)-3-amino-7-[5-(4-amino-1,1-dimethyl-butyl)-1,3,4-oxadiazol-2-yl]-5-[(4-chlorophenyl)methyl]-8-fluoro-1,1-dioxo-2,3-dihydro-1λ^6,5-benzothiazepin-4-one] | 57 | 2560 | 4230 | – | –
8 | N[C@H]1CS(=O)(=O)c2cc(F)c(-c3nnc(CC(F)(F)F)o3)cc2N(Cc2ccc(Cl)cc2)C1=O [Example 68, (3R)-3-Amino-5-[(4-chlorophenyl)methyl]-8-fluoro-1,1-dioxo-7-[5-(2,2,2-trifluoroethyl)-1,3,4-oxadiazol-2-yl]-2,3-dihydro-1λ^6,5-benzothiazepin-4-one] | 91 | 5140 | > 20000 | – | –
9 | CCc1nc(-c2cc3c(cc2F)S(=O)(=O)C[C@H](N)C(=O)N3Cc2ccc(Cl)cc2)n[nH]1 [Example 38, (3R)-3-amino-5-[(4-chlorophenyl)methyl]-7-(5-ethyl-1H-1,2,4-triazol-3-yl)-8-fluoro-1,1-dioxo-2,3-dihydro-1λ^6,5-benzothiazepin-4-one] | 50 | > 20000 | > 20000 | – | –
10 | CC(C)(C)c1nnc(-c2cc3c(cc2F)S(=O)(=O)C[C@H](N)C(=O)N3Cc2ccc(Cl)c(F)c2)o1 [Example 245, (3R)-3-amino-7-(5-tert-butyl-1,3,4-oxadiazol-2-yl)-5-[(4-chloro-3-fluoro-phenyl)methyl]-8-fluoro-1,1-dioxo-2,3-dihydro-1λ^6,5-benzothiazepin-4-one] | 127 | 102 | 92.1 | – | –
11 | N[C@H]1CS(=O)(=O)c2cc(F)c(-c3nnc(NC4CC(C(F)(F)F)C4)o3)cc2N(Cc2ccc(Cl)cc2)C1=O (stereo partly drawn) [Example 504, (3R)-3-amino-5-[(4-chlorophenyl)methyl]-8-fluoro-1,1-dioxo-7-[5-[[3-(trifluoromethyl)cyclobutyl]amino]-1,3,4-oxadiazol-2-yl]-2,3-dihydro-1λ^6,5-benzothiazepin-4-one] | 103 | 1110 | 1230 | – | –
12 | CN1CC(n2nnc(-c3cc4c(cc3F)S(=O)(=O)C[C@H](N)C(=O)N4Cc3ccccc3)n2)CC(F)(F)C1 (stereo partly drawn) [Example 22, (3R)-3-amino-5-benzyl-7-[2-(5,5-difluoro-1-methyl-3-piperidyl)tetrazol-5-yl]-8-fluoro-1,1-dioxo-2,3-dihydro-1λ^6,5-benzothiazepin-4-one] | 74 | > 10000 | > 10000 | – | –
13 | CC[C@H](NC)C(=O)N[C@H]1CS(=O)(=O)c2cc(F)c(-c3nnc(C(C)(C)C)o3)cc2N(Cc2ccc(Cl)cc2)C1=O [Example 263, (2S)-N-[(3R)-7-(5-tert-butyl-1,3,4-oxadiazol-2-yl)-5-[(4-chlorophenyl)methyl]-8-fluoro-1,1,4-trioxo-2,3-dihydro-1λ^6,5-benzothiazepin-3-yl]-2-(methylamino)butanamide] | – | – | 1400 | 185 | < 162
14 | CC(=O)N[C@H]1CS(=O)(=O)c2cc(F)c(-c3nnc(C(C)(C)C)o3)cc2N(Cc2ccc(Cl)cc2)C1=O [Example 258, N-[(3R)-7-(5-tert-butyl-1,3,4-oxadiazol-2-yl)-5-[(4-chlorophenyl)methyl]-8-fluoro-1,1,4-trioxo-2,3-dihydro-1λ^6,5-benzothiazepin-3-yl]acetamide] | 124 | 586 | 10800 | – | –
15 | CC(C#N)c1nnc(-c2ccc3c(c2)N(Cc2ccc(Cl)cc2)C(=O)[C@@H](N)CS3(=O)=O)o1 (stereo partly drawn) [Example 367, 2-[5-[(3R)-3-amino-5-[(4-chlorophenyl)methyl]-1,1,4-trioxo-2,3-dihydro-1λ^6,5-benzothiazepin-7-yl]-1,3,4-oxadiazol-2-yl]propanenitrile] | 87 | 3690 | 576 | – | –
16 | COC(=O)N1CC2CC(c3nc(-c4cc5c(cc4F)[S+]([O-])C[C@H](N)C(=O)N5Cc4ccc(OC(F)(F)C(F)F)cc4)no3)(C2)C1 (stereo partly drawn) [Example 511, methyl 1-[3-[(3R)-3-amino-8-fluoro-1,4-dioxo-5-[[4-(1,1,2,2-tetrafluoroethoxy)phenyl]methyl]-2,3-dihydro-1λ^4,5-benzothiazepin-7-yl]-1,2,4-oxadiazol-5-yl]-3-azabicyclo[3.1.1]heptane-3-carboxylate] | 104 | 6620 | 7820 | – | –
17 | N[C@H]1CS(=O)(=O)c2cc(F)c(-c3noc(C4(N)COC4)n3)cc2N(Cc2ccc(OC(F)(F)F)cc2)C1=O [Example 333, (3R)-3-amino-7-[5-(3-aminooxetan-3-yl)-1,2,4-oxadiazol-3-yl]-8-fluoro-1,1-dioxo-5-[[4-(trifluoromethoxy)phenyl]methyl]-2,3-dihydro-1lambda6,5-benzothiazepin-4-one] | 94 | 1220 | 714 | – | –

Reference: patent publication US20240368150A1 (Hoffmann-La Roche Inc., priority 2021, published 2024)
